According to patent US20230365585A1, “BENZODIAZEPINE DERIVATIVES USEFUL IN TREATING A RESPIRATORY SYNCYTIAL VIRUS INFECTION” (priority 2020, published 2023):

How the values were obtained:
RSV A2 = test: RSV plaque reduction assay; type: cell-based, RSV (RSV A2 ECACC, 0709161v); conditions: Hep-G2 cells, RSV A2, 2 days, mean of at least two experiments
Protocol: Compounds were subjected to RSV plaque reduction assays according to the following protocol.
Hep-G2 cells (ECACC, 85011430) were passaged in flasks and seeded in 24-well plates in DMEM containing antibiotics and supplemented with 10% FBS. During inoculation and subsequent incubation, cells were cultured in DMEM containing 2% FBS. 100 plaque forming unit/well of RSV (RSV A2 ECACC, 0709161v) was mixed with eight serial dilutions of compound. Subsequently, 100 µL of the virus/compound mixtures was added to confluent Hep-G2 cell monolayers. The cells and virus/compound mixtures were incubated at 37° C. in a humidified 5% CO2 incubator for 2 h prior to removal of the inoculum and addition of 1 mL of overlay (DMEM containing 2% FBS and 0.8% CMC) containing compound dilutions. The cells and were incubated at 37° C. in a humidified 5% CO2 incubator for 2 days.
Cells were washed with PBS before adding 75%/25% v/v EtOH/MeOH, for 3 min. Fix ative was removed and plates were washed with PBS. A pre-titrated amount of the primary antibody was added in 200 µL PBS/2% milk powder, and plates incubated for 90 min at 37° C. The plates were washed 3 times with PBS/0.05% Tween20 before addition of rabbit anti-goat horse radish peroxidase in 200 µL PBS/2% milk powder, and incubated for 1 h at 37° C. Following three wash steps with PBS/0.05% Tween20, 200 µL ready-to-use TrueBlue was added and plates were incubated at rt for 10-15 min before washing with water. After removal of water, plates were air-dried in the dark.
(§1) Plates were scanned and analysed using the Immunospot S6 Macro analyser, which is equipped with BioSpot analysis software for counting immunostained plaques (virospots). Plaque counts were used to calculate % infection relative to the mean of the plaque count in the virus control wells for RSV. […] Plaque EC50 and cell toxicity CC50 values are a mean of at least two experiments and figures are rounded to whole units.

Hep-G2 cells = test: Cell cytotoxicity CC50; type: cell-based; conditions: mean of at least two experiments
Text: as §1

Cell cytotoxicity CC50 = type: cell-based; conditions: human; mean of at least two experiments
Text: as §1

[1] = human respiratory syncytial virus, HepG2, 48 h

Row | Compound | EC50 (RSV A2) [nM] | CC50 (Hep-G2 cells) [µM] | EC50 (RSV A2; [1]) [nM] | CC50 (Cell cytotoxicity CC50) [µM]
1 | 2-(2,4-Difluorophenyl)-5-methyl-N-[(3S)-2-oxo-5-phenyl-1,3-dihydro-1,4-benzodiazepin-3-yl]-5,6,7,8-tetrahydropyrazolo[5,1-b][1,3]oxazepine-3-carboxamide [Example 16] | 64 | > 25 | – | –
2 | CCNc1ccc(-c2nn3c(c2C(=O)N[C@H]2N=C(c4ccccc4)c4ccccc4NC2=O)OC(C)CCC3)c(F)n1 (single isomer, unassigned) [Example 10-2, (5S*)-2-[6-(ethylamino)-2-fluoropyridin-3-yl]-5-methyl-N-[(3S)-2-oxo-5-phenyl-1,3-dihydro-1,4-benzodiazepin-3-yl]-5,6,7,8-tetrahydropyrazolo[5,1-b][1,3]oxazepine-3-carboxamide] | 24 | > 25 | – | –
3 | CC(C)Nc1ccc(-c2nn3c(c2C(=O)N[C@H]2N=C(c4ccccc4)c4ccccc4NC2=O)OC(C)CCC3)c(F)n1 (single isomer, unassigned) [Example 12-2, (5S*)-2-[2-fluoro-6-(propan-2-ylamino)pyridin-3-yl]-5-methyl-N-[(3S)-2-oxo-5-phenyl-1,3-dihydro-1,4-benzodiazepin-3-yl]-5,6,7,8-tetrahydropyrazolo[5,1-b][1,3]oxazepine-3-carboxamide] | 33 | > 25 | – | –
4 | CC(C)Nc1ccc(-c2nn3c(c2C(=O)N[C@H]2N=C(c4ccccc4)c4cccc(F)c4NC2=O)OC(C)CCC3)c(F)n1 (single isomer, unassigned) [Example 13-2, (5S*)-N-[(3S)-9-fluoro-2-oxo-5-phenyl-1,3-dihydro-1,4-benzodiazepin-3-yl]-2-[2-fluoro-6-(propan-2-ylamino)pyridin-3-yl]-5-methyl-5,6,7,8-tetrahydropyrazolo[5,1-b][1,3]oxazepine-3-carboxamide] | 23 | > 25 | – | –
5 | CC1CCCOc2c(C(=O)NC3N=C(c4ccccc4)c4ccccc4NC3=O)c(-c3ccccc3F)nn21 (single isomer, unassigned) [Example 14-2, (8S*)-2-(2-Fluorophenyl)-8-methyl-N-(2-oxo-5-phenyl-1,3-dihydro-1,4-benzodiazepin-3-yl)-5,6,7,8-tetrahydropyrazolo[5,1-b][1,3]oxazepine-3-carboxamide] | 60 | > 25 | – | –
6 | CC1CCCOc2c(C(=O)NC3N=C(c4ccccc4)c4cccc(F)c4NC3=O)c(-c3ccccc3F)nn21 (single isomer, unassigned) [Example 15-2, (8S*)-N-(9-fluoro-2-oxo-5-phenyl-1,3-dihydro-1,4-benzodiazepin-3-yl)-2-(2-fluorophenyl)-8-methyl-5,6,7,8-tetrahydropyrazolo[5,1-b][1,3]oxazepine-3-carboxamide] | 37 | > 25 | – | –
7 | CC1CCCn2nc(-c3ccc(F)cc3F)c(C(=O)N[C@H]3N=C(c4ccccc4)c4ccccc4NC3=O)c2O1 (single isomer, unassigned) [Example 16-2, (5S*)-2-(2,4-difluorophenyl)-5-methyl-N-[(3S)-2-oxo-5-phenyl-1,3-dihydro-1,4-benzodiazepin-3-yl]-5,6,7,8-tetrahydropyrazolo[5,1-b][1,3]oxazepine-3-carboxamide] | 39 | > 25 | – | –
8 | CC1CCCn2nc(-c3ccc(F)cc3F)c(C(=O)N[C@H]3N=C(c4ccccc4)c4cccc(F)c4NC3=O)c2O1 (single isomer, unassigned) [Example 17-2, (5S*)-2-(2,4-difluorophenyl)-N-[(3S)-9-fluoro-2-oxo-5-phenyl-1,3-dihydro-1,4-benzodiazepin-3-yl]-5-methyl-5,6,7,8-tetrahydropyrazolo[5,1-b][1,3]oxazepine-3-carboxamide] | 20 | > 25 | – | –
9 | CCC1CCCn2nc(-c3ccccc3F)c(C(=O)N[C@H]3N=C(c4ccccc4)c4ccccc4NC3=O)c2O1 (single isomer, unassigned) [Example 24-2, (5S*)-5-ethyl-2-(2-fluorophenyl)-N-[(3S)-2-oxo-5-phenyl-2,3-dihydro-1H-1,4-benzodiazepin-3-yl]-5H,6H,7H,8H-pyrazolo[3,2-b][1,3]oxazepine-3-carboxamide] | 89 | > 25 | – | –
10 | CC1CCCn2nc(-c3ccccc3F)c(C(=O)N[C@H]3N=C(c4ccccc4)c4ccccc4NC3=O)c2O1 (stereo partly drawn) [Example 18, 2-(2-Fluorophenyl)-5-methyl-N-[(3S)-2-oxo-5-phenyl-1,3-dihydro-1,4-benzodiazepin-3-yl]-5,6,7,8-tetrahydropyrazolo[5,1-b][1,3]oxazepine-3-carboxamide] | – | – | 37 | > 25
11 | O=C(N[C@H]1N=C(c2ccccc2)c2cccc(F)c2NC1=O)c1c(-c2ccccc2F)nn2c1SCCCC2 [Example 20, N-[(3S)-9-fluoro-2-oxo-5-phenyl-2,3-dihydro-1H-1,4-benzodiazepin-3-yl]-2-(2-fluorophenyl)-5H,6H,7H,8H-pyrazolo[3,2-b][1,3]thiazepine-3-carboxamide] | – | – | 34 | > 25
12 | O=C(N[C@H]1N=C(c2ccccc2)c2cccc(F)c2NC1=O)c1c(-c2ccccc2F)nn2c1S(=O)(=O)CCCC2 [Example 21, N-[(3S)-9-fluoro-2-oxo-5-phenyl-2,3-dihydro-1H-1,4-benzodiazepin-3-yl]-2-(2-fluorophenyl)-4,4-dioxo-5H,6H,7H,8H-4λ^6-pyrazolo[3,2-b][1,3]thiazepine-3-carboxamide] | – | – | 377 | > 25
13 | CCc1ccc(-c2nn3c(c2C(=O)N[C@H]2N=C(c4ccccc4)c4cccc(F)c4NC2=O)OCC(F)(F)CC3)cn1 [Example 22, 2-(6-Ethylpyridin-3-yl)-6,6-difluoro-N-[(3S)-9-fluoro-2-oxo-5-phenyl-2,3-dihydro-1H-1,4-benzodiazepin-3-yl]-5H,6H,7H,8H-pyrazolo[3,2-b][1,3]oxazepine-3-carboxamide] | – | – | 103 | > 25
14 | CC(C)Nc1ccc(-c2nn3c(c2C(=O)N[C@H]2N=C(c4ccccc4)c4cccc(F)c4NC2=O)OCC(F)(F)CC3)cn1 [Example 23, 6,6-Difluoro-N-[(3S)-9-fluoro-2-oxo-5-phenyl-2,3-dihydro-1H-1,4-benzodiazepin-3-yl]-2-{6-[(propan-2-yl)amino]pyridin-3-yl}-5H,6H,7H,8H-pyrazolo[3,2-b][1,3]oxazepine-3-carboxamide] | – | – | 52 | > 25
15 | CCC1CCCn2nc(-c3ccccc3F)c(C(=O)N[C@H]3N=C(c4ccccc4)c4ccccc4NC3=O)c2O1 (stereo partly drawn) [Example 24, 5-Ethyl-2-(2-fluorophenyl)-N-[(3S)-2-oxo-5-phenyl-1,3-dihydro-1,4-benzodiazepin-3-yl]-5,6,7,8-tetrahydropyrazolo[5,1-b][1,3]oxazepine-3-carboxamide] | – | – | 100 | > 25
16 | CCC1CCCn2nc(-c3ccccc3F)c(C(=O)N[C@H]3N=C(c4ccccc4)c4cccc(F)c4NC3=O)c2O1 (some centres unmarked) [Example 25, 5-Ethyl-N-[(3 S)-9-fluoro-2-oxo-5-phenyl-1,3-dihydro-1,4-benzodiazepin-3-yl]-2-(2-fluorophenyl)-5,6,7,8-tetrahydropyrazolo[5,1-b][1,3]oxazepine-3-carboxamide] | – | – | 83 | > 25
17 | CCC1CCCn2nc(-c3ccc(C)nc3)c(C(=O)N[C@H]3N=C(c4ccccc4)c4ccccc4NC3=O)c2O1 (stereo partly drawn) [Example 26, 5-Ethyl-2-(6-methylpyridin-3-yl)-N-[(3S)-2-oxo-5-phenyl-1,3-dihydro-1,4-benzodiazepin-3-yl]-5,6,7,8-tetrahydropyrazolo[5,1-b][1,3]oxazepine-3-carboxamide] | – | – | 590 | > 25
18 | CCC1CCCn2nc(-c3ccc(C)nc3)c(C(=O)N[C@H]3N=C(c4ccccc4)c4cccc(F)c4NC3=O)c2O1 (some centres unmarked) [Example 27, 5-Ethyl-N-[(3 S)-9-fluoro-2-oxo-5-phenyl-1,3-dihydro-1,4-benzodiazepin-3-yl]-2-(6-methylpyridin-3-yl)-5,6,7,8-tetrahydropyrazolo[5,1-b][1,3]oxazepine-3-carboxamide] | – | – | 394 | > 25
19 | CS(=O)(=O)c1ccc(-c2nn3c(c2C(=O)N[C@H]2N=C(c4ccccc4)c4cccc(F)c4NC2=O)OC2CCC3C2)c(F)c1 (stereo partly drawn) [Example 32, 4-(2-Fluoro-4-methylsulfonylphenyl)-N-[(3S)-9-fluoro-2-oxo-5-phenyl-1,3-dihydro-1,4-benzodiazepin-3-yl]-7-oxa-2,3-diazatricyclo[6.2.1.02,6]undeca-3,5-diene-5-carboxamide] | – | – | 23 | > 25
